Measurements published in patent US20240197890A1, “FLAVONE DERIVATIVES AND USES IN TARGETING CK2-MEDIATED DISEASES AND CONDITIONS” (Salk Institute for Biological Studies, priority 2020, published 2024).

How the values were obtained:
IκB S32 = assay: Immunoblot of IκB S32 in IL1-β-stimulated astrocytes; assay type: cell-based, human; conditions: after 5 hours
Procedure: Western blotting. […] Cells were dissociated with 1:1 Accutase:papain for 3 min at rt, pelleted for 5 min at 800 g, and washed twice with cold DPBS. Pellets were lysed with RIPA buffer (Sigma R0278) supplemented with Halt protease inhibitor cocktail (Thermo Fisher 78445) and clarified by centrifugation (16,000 g, 10 min, 4° C.). Protein concentration was determined by BCA assay (Thermo Fisher). Proteins were denatured in 1×LDS Buffer and 2.5% beta-mercaptoethanol (X) for 10 min at 70° C., separated on Bolt 4-12% Bis-Tris Plus polyacrylamide gels (Thermo Fisher), transferred to PVDF membranes using the iBlot 2 Dry Blotting System, and blocked with 0.1% casein-PBS (Bio-Rad) for 1 h at room temperature. The blots were incubated with primary antibodies overnight at 4° C. in PBS containing 0.1% casein and 0.2% Tween-20. Antibodies used: rabbit anti-CK2a1 (Bethyl #, 1:5000), rabbit anti-CK2a2 (Bethyl #, 1:5000), mouse anti-GAPDH (Fitzgerald #10-1501, 1:20,000), mouse anti-NF-KB (CST #6956S, 1:1000), pNF-KB S529 (TFS #14-9864-82, 1:100), LC3B (CST 2775, 1:1000), ACO2 (CST 6922, 1:1000), rabbit HMGB1 (Novus #NB1002322, 1:1000), mouse anti-IκBα (CST #4814S, 1:1000), mouse anti-IκBa pS32 (SC #8404, 1:500), HA-tag (Bethyl #A190-108A, 1:20000). […] The blots were imaged using the Odyssey CLx imaging system and blots were analyzed on the ImageStudio software (LI-COR). […]

HMGB1 = HMGB1 secretion in AD patient iPSC-derived astrocytes (Western blot); assay type: cell-based, human
Procedure: Western blotting. For drug treatment assays, cells were treated with vehicle (DMSO) or 20 μM compound and stimulated with IL1-B 10 ng/mL for 1 h, 6 h, or 24 h. Cells were dissociated with 1:1 Accutase:papain for 3 min at rt, pelleted for 5 min at 800 g, and washed twice with cold DPBS. Pellets were lysed with RIPA buffer (Sigma R0278) supplemented with Halt protease inhibitor cocktail (Thermo Fisher 78445) and clarified by centrifugation (16,000 g, 10 min, 4° C.). Protein concentration was determined by BCA assay (Thermo Fisher). Proteins were denatured in 1×LDS Buffer and 2.5% beta-mercaptoethanol (X) for 10 min at 70° C., separated on Bolt 4-12% Bis-Tris Plus polyacrylamide gels (Thermo Fisher), transferred to PVDF membranes using the iBlot 2 Dry Blotting System, and blocked with 0.1% casein-PBS (Bio-Rad) for 1 h at room temperature. The blots were incubated with primary antibodies overnight at 4° C. in PBS containing 0.1% casein and 0.2% Tween-20. […] The blots were imaged using the Odyssey CLx imaging system and blots were analyzed on the ImageStudio software (LI-COR).
To further investigate this CK2 dysregulation in an in vitro AD model, iPSC-derived astrocytes were generated from a cohort of 6 AD patients and 5 age-matched controls. […] HMGB1 was detected in media from AD astrocytes in the absence of inflammatory stimuli (FIG. 12C). […]

CK2α1 = molecular target: T1, CK2α1 (Homo sapiens, UniProt P68400); assay: Thermal shift assay with Western blotting in astrocyte extracts; assay type: binding; conditions: extracts of iPSC-derived astrocytes
T1 construct: endogenous in cells
Procedure: Thermal shift assay and TPP. […] Protein concentration was determined by BCA assay (Bio-Rad), and lysates were diluted to 2 mg/mL. […] Reactions were incubated at rt for 30 min, after which each treated extract was divided into 10 aliquots of 95 μl in PCR strip tubes and stored on ice. […] A small aliquot (5 μl) of supernatant was saved for Western blotting, and the rest was snap frozen at −80 C and submitted for LC-MS/MS.

T1 sequence (P68400 whole entry): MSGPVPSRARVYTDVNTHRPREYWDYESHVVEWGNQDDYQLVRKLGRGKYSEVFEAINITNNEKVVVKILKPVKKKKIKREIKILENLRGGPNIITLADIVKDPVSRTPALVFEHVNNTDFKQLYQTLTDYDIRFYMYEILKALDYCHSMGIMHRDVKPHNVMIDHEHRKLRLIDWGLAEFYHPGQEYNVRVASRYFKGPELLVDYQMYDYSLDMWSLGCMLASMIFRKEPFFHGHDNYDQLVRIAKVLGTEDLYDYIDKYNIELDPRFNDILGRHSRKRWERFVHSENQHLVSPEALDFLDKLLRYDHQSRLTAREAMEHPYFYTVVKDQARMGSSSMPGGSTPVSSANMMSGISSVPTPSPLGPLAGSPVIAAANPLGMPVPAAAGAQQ

## COc1cc(-c2cc(=O)c3c(O)cc(O)cc3o2)ccc1O [CHR, chrysoeriol]
IκB S32
  IκB S32 levels: decreased
HMGB1
  HMGB1 secretion: reduced
CK2α1
  binding / thermal stabilization of CK2a: dose-dependently stabilized
CK2α1; listed as chrysoeriol
  binding / thermal stabilization of CK2a: bind CK2a
